Test results from patent US12606541B2, “PPARg modulators and methods of use” (Eisai R&D Management Co., Ltd., priority 2020, dated 2026).
Read-outs that look alike come from different tables or passages of the source.

Tests used:
[1] = biological target: T1, His6-TEV-PPARγ-(234-505) (Homo sapiens, UniProt P37231); test: TR-FRET Assay to Measure Co-R Peptide Recruitment to PPARγ; format: biochemical; settings: Co-R peptide (SMRT-ID2) recruitment, top final concentration 20 μM, read-out: TR-FRET i-Ag, AC50
T1 construct: The His6-TEV-PPARγ-(234-505) protein for assay was expressed and purified; TEV cleavage site (N); made in house
T1 sequence (P37231 234-505): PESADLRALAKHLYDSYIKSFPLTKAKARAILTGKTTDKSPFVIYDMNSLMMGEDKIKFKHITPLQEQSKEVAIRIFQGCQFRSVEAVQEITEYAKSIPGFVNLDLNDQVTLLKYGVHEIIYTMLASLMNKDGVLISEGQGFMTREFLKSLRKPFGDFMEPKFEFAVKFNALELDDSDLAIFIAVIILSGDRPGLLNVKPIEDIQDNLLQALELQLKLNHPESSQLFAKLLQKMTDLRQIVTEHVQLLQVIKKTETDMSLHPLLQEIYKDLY
How it was run: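 Corepressor recruitment is measured by adding terbium-labeled anti-His antibody and FITC SMRT-ID2 peptide, at 5 and 200 nM final, after a 20-minute room-temperature protein–compound incubation. After one further hour, signal is converted to percent response between DMSO and 500 nM T0070907 wells.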

[2] = tested on: UM-UC-9 engineered cells; test: Cell proliferation / short-term viability assay, CellTiter-Glo 144 h; format: cell-based, human; settings: read-out: CTGlo 144 h UMUC9.5, G150
How it was run: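 Viability read by CellTiter-Glo 2.0 luminescence at day 7 versus DMSO-vehicle wells and a T0 plate measured on day 0. Cells: UM-UC-9 engineered assay-ready stocks, 500 cells/well in high-glucose DMEM with 10% FBS, 37° C, 5% CO2.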

COc1cc(-c2cc(C(=O)N3CCC(C(=O)NC4CCOc5ncccc54)CC3)n[nH]2)c(Cl)cn1 (racemic) [Example 236, 1-(5-(5-chloro-2-methoxypyridin-4-yl)-1H-pyrazole-3-carbonyl)-N (3,4-dihydro-2H-pyrano[2,3-b]pyridin-4-yl)piperidine-4-carboxamide]
AC50 [1]: 0.466 µM | IC50 ([2]; Homo sapiens, UM-UC-9, 144 h): 5.36 µM

COc1cc(-c2cc(C(=O)N3CCC(C(=O)NC4C(=O)N(C)Cc5ccccc54)CC3)n[nH]2)c(Cl)cn1 (racemic) [Example 240, 1-(5-(5-chloro-2-methoxypyridin-4-yl)-1H-pyrazole-3-carbonyl)-N-(2-methyl-3-oxo-1,2,3,4-tetrahydroisoquinolin-4-yl)piperidine-4-carboxamide]
AC50 [1]: 0.708 µM | IC50 ([2]; Homo sapiens, UM-UC-9, 144 h): 6.05 µM

COc1cc(-c2cc(C(=O)N3CCC(C(=O)NC4C(=O)NCc5ccccc54)CC3)n[nH]2)c(Cl)cn1 (racemic) [Example 244, 1-(5-(5-chloro-2-methoxypyridin-4-yl)-1H-pyrazole-3-carbonyl)-N-(3-oxo-1,2,3,4-tetrahydroisoquinolin-4-yl)piperidine-4-carboxamide]
AC50 [1]: 0.605 µM | IC50 ([2]; Homo sapiens, UM-UC-9, 144 h): 5.56 µM

COc1cc(-c2cc(C(=O)N3CCC(C(=O)NC4CCN(c5ccc(F)cc5)C4)CC3)n[nH]2)c(Cl)cn1 (racemic) [Example 253, 1-(5-(5-chloro-2-methoxypyridin-4-yl)-1H-pyrazole-3-carbonyl)-N-(1-(4-fluorophenyl)pyrrolidin-3-yl)piperidine-4-carboxamide]
AC50 [1]: 0.051 µM | IC50 ([2]; Homo sapiens, UM-UC-9, 144 h): 0.387 µM

COc1cc(-c2cc(C(=O)N3CCC(C(=O)NCc4cccc(Cl)c4)CC3(C)C)n[nH]2)c(Cl)cn1 (racemic) [Example 255]
AC50 [1]: 0.0633 µM | IC50 ([2]; Homo sapiens, UM-UC-9, 144 h): 0.151 µM

COc1cc(-c2cc(C(=O)N3CCC(C(=O)NC(C)c4ccc5[nH]nc(C)c5c4)CC3)n[nH]2)c(F)cn1 (racemic) [Example 281, 1-(5-(5-fluoro-2-methoxypyridin-4-yl)-1H-pyrazole-3-carbonyl)-N-(1-(3-methyl-1H-indazol-5-yl)ethyl)piperidine-4-carboxamide]
AC50 [1]: 0.101 µM | IC50 ([2]; Homo sapiens, UM-UC-9, 144 h): 0.632 µM

COc1cc(-c2cc(C(=O)N3[C@@H]4CC[C@H]3C[C@H](C(=O)NC3CCC(O)(C(F)(F)C(F)(F)F)CC3)C4)n[nH]2)c(F)cn1 (mixture of isomers) [Example 301, (1R,3s,5S)-8-(5-(5-fluoro-2-methoxypyridin-, 1-yl)-1H-pyrazole-3-carbonyl)-N-(4-hydroxy-4-(perfluoroethyl)cyclohexyl)-8-azabicyclo[3.2.1]octane-3-carboxamide]
AC50 [1]: 0.0159 µM | IC50 ([2]; Homo sapiens, UM-UC-9, 144 h): 0.0748 µM

COc1cc(-c2cc(C(=O)N3CCC(C(=O)Nc4c(F)ccc5ccnn45)CC34CC4)n[nH]2)c(F)cn1 (racemic) [Example 468, (R)-4-(5-(5-fluoro-2-methoxypyridin-4-yl)-1H-pyrazole-3-carbonyl)-N-(6-fluoropyrazolo[1,5-a]pyridin-7-yl)-4-azaspiro[2.5]octane-7-carboxamide and (S)-4-(5-(5-fluoro-2-methoxypyridin-4-yl)-1H-pyrazole-3-carbonyl)-N-(6-fluoropyrazolo[1,5-a]pyridin-7-yl)-4-azaspiro[2.5]octane-7-carboxamide]
AC50 [1]: 0.0083 µM | IC50 [2]: 0.08 µM

O=C(NCc1ncc(F)cc1Cl)C1CCN(C(=O)c2cc(-c3cc(C4CC4)ncc3F)[nH]n2)C2(CC2)C1 (racemic) [Example 480, (S)—N-((3-chloro-5-fluoropyridin-2-yl)methyl)-4-(5-(2-cyclopropyl-5-fluoropyridin-4-yl)-1H-pyrazole-3-carbonyl)-4-azaspiro[2.5]octane-7-carboxamide and (R)—N-((3-chloro-5-fluoropyridin-2-yl)methyl)-4-(5-(2-cyclopropyl-5-fluoropyridin-4-yl)-1H-pyrazole-3-carbonyl)-4-azaspiro[2.5]octane-7-carboxamide]
AC50 [1]: 0.0176 µM | IC50 [2]: 0.371 µM

CCc1cc(-c2cc(C(=O)N3CCC(C(=O)NCc4ncc(F)cc4Cl)CC34CC4)n[nH]2)c(F)cn1 (racemic) [Example 483, (S)—N-((3-chloro-5-fluoropyridin-2-yl)methyl)-4-(5-(2-ethyl-5-fluoropyridin-4-yl)-1H-pyrazole-3-carbonyl)-4-azaspiro[2.5]octane-7-carboxamide and (R)—N-((3-chloro-5-fluoropyridin-2-yl)methyl)-4-(5-(2-ethyl-5-fluoropyridin-4-yl)-1H-pyrazole-3-carbonyl)-4-azaspiro[2.5]octane-7-carboxamide]
AC50 [1]: 0.0062 µM | IC50 [2]: 0.0445 µM

COc1cnc(CNC(=O)C2CCN(C(=O)c3cc(-c4cc(C)ncc4F)[nH]n3)C3(CC3)C2)c(Cl)c1 (racemic) [Example 484, (S)—N-((3-chloro-5-methoxypyridin-2-yl)methyl)-4-(5-(5-fluoro-2-methylpyridin-4-yl)-1H-pyrazole-3-carbonyl)-4-azaspiro[2.5]octane-7-carboxamide and (R)—N-((3-chloro-5-methoxypyridin-2-yl)methyl)-4-(5-(5-fluoro-2-methylpyridin-4-yl)-1H-pyrazole-3-carbonyl)-4-azaspiro[2.5]octane-7-carboxamide]
AC50 [1]: 0.0038 µM | IC50 [2]: 0.0205 µM

COc1cc(-c2cc(C(=O)N3CC[C@H](C(=O)N[C@H]4CC[C@@](O)(C(F)(F)F)CC4)CC34CCC4)n[nH]2)c(F)cn1 (racemic) [Example 486, (S)-5-(5-(5-fluoro-2-methoxypyridin-4-yl)-1H-pyrazole-3-carbonyl)-N-((1r,4S)-4-hydroxy-4-(trifluoromethyl)cyclohexyl)-5-azaspiro[3.5]nonane-8-carboxamide and (R)-5-(5-(5-fluoro-2-methoxypyridin-4-yl)-1H-pyrazole-3-carbonyl)-N-((1r,4R)-4-hydroxy-4-(trifluoromethyl)cyclohexyl)-5-azaspiro[3.5]nonane-8-carboxamide]
AC50 [1]: 0.0052 µM | IC50 ([2]; Homo sapiens, UM-UC-9, 144 h): 0.0445 µM

Cc1cc(-c2cc(C(=O)N3CC[C@H](C(=O)NCc4ncccc4C4CC4)CC34CC4)[nH]n2)c(F)cn1 (racemic) [Example 506, (S)—N-((3-cyclopropylpyridin-2-yl)methyl)-4-(3-(5-fluoro-2-methylpyridin-4-yl)-1H-pyrazole-5-carbonyl)-4-azaspiro[2.5]octane-7-carboxamide and (R)—N-((3-cyclopropylpyridin-2-yl)methyl)-4-(3-(5-fluoro-2-methylpyridin-4-yl)-1H-pyrazole-5-carbonyl)-4-azaspiro[2.5]octane-7-carboxamide]
AC50 [1]: 0.0103 µM | IC50 ([2]; Homo sapiens, UM-UC-9, 144 h): 0.0206 µM

N#Cc1cc(-c2cc(C(=O)N3CCC(C(=O)NC4CCC(O)(C(F)(F)F)CC4)CC34CC4)n[nH]2)ncn1 (racemic) [Example 528, (R)-4-(5-(6-cyanopyrimidin-4-yl)-1H-pyrazole-3-carbonyl)-N-((1r,4R)-4-hydroxy-4-(trifluoromethyl)cyclohexyl)-4-azaspiro[2.5]octane-7-carboxamide and (S)-4-(5-(6-cyanopyrimidin-4-yl)-1H-pyrazole-3-carbonyl)-N-((1r,4S)-4-hydroxy-4-(trifluoromethyl)cyclohexyl)-4-azaspiro[2.5]octane-7-carboxamide]
AC50 [1]: 0.006 µM | IC50 [2]: 0.479 µM

COc1cc(-c2cc(C(=O)N3CCC(C(=O)NC4CCC(C)CC4)CC3)n[nH]2)c(Cl)cn1 (single isomer, unassigned) [Example 101-B]
AC50 [1]: 0.0092 µM | IC50 ([2]; listed as 101b): 0.084 µM

CC[C@H]1CC[C@@H](NC(=O)C2CCN(C(=O)c3cc(-c4ccnc(OC)c4)[nH]n3)CC2)CC1 (single isomer, unassigned) [Example 108-A, N-((1s,4s)-4-ethylcyclohexyl)-1-(5-(2-methoxypyridin-4-yl)-1H-pyrazole-3-carbonyl)piperidine-4-carboxamide]
AC50 [1]: 0.16 µM | IC50 ([2]; Homo sapiens, UM-UC-9, 144 h): 0.674 µM

COc1cc(-c2[nH]nc(C(=O)N3CCC(C(=O)NC4CCC(C)CC4)CC3)c2Cl)ccn1 (single isomer, unassigned) [Example 110-A]
AC50 ([1]; listed as 110a): 2.16 µM | IC50 ([2]; listed as 110a): 3.19 µM

COc1cc(-c2[nH]nc(C(=O)N3CCC(C(=O)NC4CCC(C)CC4)CC3)c2Cl)ccn1 (single isomer, unassigned) [Example 110-B]
AC50 ([1]; listed as 110b): 0.217 µM | IC50 ([2]; listed as 110b): 0.697 µM

COc1cc(-c2cc(C(=O)N3CCC(C(=O)NC4CCC(C)CC4)CC3)n[nH]2)c(F)cn1 (single isomer, unassigned) [Example 114-A]
AC50 ([1]; listed as 114a): 3.47 µM | IC50 ([2]; listed as 114a): 4.43 µM
